# Results published in paper PMC3221499, “A New Flavonoid C-Glycoside from Celtis australis L. and Celtis occidentalis L. Leaves and Potential Antioxidant and Cytotoxic Activities” (Scientia Pharmaceutica, 2011).
# Assays:
# [1] = DPPH radical scavenging activity; settings: samples at 100 μg/mL; 30 min at 30 °C; mean ± SE, n=3
# Description: The ability of the extracts to scavenge free radicals was determined according to the method of Hosny, et al 2002 [24]. In a 96-well plate, 10 μL of each sample or standard dissolved in ethanol (100 μg/mL) was added to 190 μL of 316 μM/mL DPPH solution. A blank was prepared using ethanol. After incubation at 30 °C for 30 min, the absorbance of each solution was measured at 517 nm. DL-α-tocopherol and BHT were used as positive controls. […] All experiments were carried out in triplicate.
# [2] = tested on: FeSO4/H2O2-stimulated lipid peroxidation (MDA production) in rat tissue homogenates; assay: FeSO4/H2O2-stimulated lipid peroxidation (MDA production, TBARS) in rat tissue homogenates; assay type: biochemical; settings: 200 μg/mL, mean ± SE, n=3; for Inhibition (%) Brain: rat brain homogenate; for Inhibition (%) Heart: rat heart homogenate; for Inhibition (%) Liver: rat liver homogenate
# Description: During aerobic incubation of the tissue homogenates, MDA released reacts with thiobarbituric acid (TBA) to give a pink colour. The capability of the samples to inhibit MDA formation is used as a measure of their antioxidant activity. […] The results were expressed as nanomoles of MDA equivalents per milligram of protein of rat (brain, heart and liver) homogenates. All measurements were done in triplicate. The capability to inhibit MDA formation was calculated using the following equation: Inhibition effects (%)=1-MDA in tissue homogenate with test extracts/MDA in tissue homogenate without test extracts×100
SMILES,DPPH % inhibition [1] [%],Inhibition (%) Brain [2] [%],Inhibition (%) Heart [2] [%],Inhibition (%) Liver [2] [%]
Cc1c(C)c2c(c(C)c1O)CC[C@@](C)(CCC[C@H](C)CCC[C@H](C)CCCC(C)C)O2 (racemic) [DL-α-tocopherol],66.5 ± 2.75,62.90 ± 2.18,58.70 ± 1.80,71.10 ± 2.25
"Cc1cc(C(C)(C)C)c(O)c(C(C)(C)C)c1 [BHT, butylated hydroxytoluene]",55.3 ± 1.50,52.48 ± 1.72,43.23 ± 1.65,53.20 ± 1.65
